# Assay results reported in US12421253B2 (Mirati Therapeutics, Inc., priority 2020, dated 2025).
# pIC50: −log10 of the molar value.
# Columns and labels:
# KRas^G12D = target: T1, KRas^G12D (Homo sapiens, UniProt P01116, G12D); experiment: KRas binding assay (TR-FRET displacement of Cy5 labelled tracer)
# T1 construct: […]; biotin (biotinylated); purchased Accelegan Inc
# KRas^G12R = target: T2, KRas^G12R (Homo sapiens, UniProt P01116, G12R); experiment: as above
# T2 construct: […]; biotin (biotinylated); purchased Accelegan Inc
# T2 sequence (P01116 1-169 isoform P01116-2 G12R): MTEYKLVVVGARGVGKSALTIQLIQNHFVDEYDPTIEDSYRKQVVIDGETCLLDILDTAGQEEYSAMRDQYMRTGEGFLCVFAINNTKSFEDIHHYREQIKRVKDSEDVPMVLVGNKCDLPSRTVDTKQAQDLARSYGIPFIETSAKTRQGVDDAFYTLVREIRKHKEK
# H727 cells, pERK = experiment: Inhibition of KRas phosphorylation of ERK (Cisbio HTRF Advanced pERK assay); assay type: cell-based; conditions: Homo sapiens, NCI-H727, 3 h, read-out: Inhibition (HTRF IC50 nM) of KRas-mediated Phosphorylation of ERK, H727
# Method: (§1) Inhibition of KRas Phosphorylation of ERK (HTRF) by Exemplary Compounds of Formula (I)
# (§2) Cisbio HTRF Advanced pERK Assay Catalog #64AERPEH
# (§3) • Day 1: Seed 6,000 cells/well −25 μl/well in 384-well white solid bottom plate; RPM1_10% FBS. […] To harvest cells from flask using 0.05% Trypsin/EDTA solution. Add 10 mL of media to stop trypsinizing. Pipette the cells into a conical bottom 50 mL centrifuge tube and centrifuge 5 min×1000 rpm. • 2. Re-suspend the cell pellet in media, take a cell count, and then adjust the cell density using fresh media. • 3. Seed 6,000 cells into cell culture plate with […]. The • 4. Incubate cell plate overnight in a 37° C., 5% CO2 incubator. Compound Titrations • 1. Use Tecan to complete the compound addition. Compounds start from 10 uM top, 3-fold dilution, and 10 doses. The final DMSO concentration is 0.8%. Dispensed 0.2 uM Trametinib as Min control. • 2. Incubate cell plate for 3 hrs in the incubator. Detection with Cisbio pERK HTRF Kit • 1. Dilute 1 volume of 4× lysis buffer with 3 volumes of deionized water. Then, add 100× the blocking reagent. Keep lysis buffer on the ice. • 2. At the end of the compound treatment, flick-off the media. • 3. Add 35 μL of lysis buffer per well using a Multidrop Combi. Then place on a plate agitator shaking at 300 rpm at 4° C. for 40 mins. • 4. Make up the HTRF antibody buffer. For each assay plate, mix 50 μL of d2-conjugate antibody with 950 μL of detection buffer. Similarly, mix 50 μL of Cryptate antibody with 950 μL of detection buffer. Then mix the two diluted antibodies together. • 5. Dispense 3.4 μL the antibody buffer to wells of an empty assay plate. Seal the plate and centrifuge plate 30 sec×1000 rpm. • 6. At the end of the 4° C. lysis, centrifuge the lysate plates 3 mins×1500 rpm. • 7. Use the Bravo to transfer 13.6 μL of lysate from cell culture plate to assay plate. Then incubate assay plate for 2 hrs at room temperature. • 8. At the end of incubation, read plate on the Envision after centrifuging plate 30 sec×1000 rpm.
# ASPC1 cells, pERK = experiment: as above; assay type: cell-based; conditions: Homo sapiens, ASPC1, 3 h, AsPC-1 cells, read-out: Inhibition (HTRF IC50 nM) of KRas-mediated Phosphorylation of ERK, AsPC-1
# Method: as §1, §2, §3
# PSN1 cells, pERK = experiment: as above; assay type: cell-based; conditions: Homo sapiens, PSN1, 3 h, read-out: Inhibition (HTRF IC50 nM) of KRas-mediated Phosphorylation of ERK, PSN1
# Method: as §1, §2, §3
# MKN1 cells, pERK = experiment: as above; assay type: cell-based; conditions: Homo sapiens, MKN-1, 3 h, read-out: Inhibition (HTRF IC50 nM) of KRas-mediated Phosphorylation of ERK, MKN1
# Method: as §1, §2, §3
# HCT116 cells, pERK = experiment: as above; assay type: cell-based; conditions: Homo sapiens, HCT-116, 3 hrs, read-out: Inhibition (HTRF IC50 nM) of KRas-mediated Phosphorylation of ERK, HCT116
# Method: as §1, §2, §3
# KRas^G12V = target: T3, KRas^G12V (Homo sapiens, UniProt P01116, G12V); experiment: KRas binding assay (TR-FRET displacement of Cy5 labelled tracer)
# T3 construct: […]; biotin (biotinylated); purchased Accelegan Inc
# T3 sequence (P01116 1-169 isoform P01116-2 G12V): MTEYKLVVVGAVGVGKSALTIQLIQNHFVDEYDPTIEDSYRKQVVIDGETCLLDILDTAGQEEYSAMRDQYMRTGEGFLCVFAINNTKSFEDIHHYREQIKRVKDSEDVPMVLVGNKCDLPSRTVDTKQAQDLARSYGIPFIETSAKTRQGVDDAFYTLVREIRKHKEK
# T1 sequence (P01116 1-169 isoform P01116-2 G12D): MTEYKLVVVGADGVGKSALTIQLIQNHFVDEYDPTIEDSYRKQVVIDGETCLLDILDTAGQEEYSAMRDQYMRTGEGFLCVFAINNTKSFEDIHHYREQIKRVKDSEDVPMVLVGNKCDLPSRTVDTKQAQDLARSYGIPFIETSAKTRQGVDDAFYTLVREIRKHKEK
pIC50 (KRas^G12D),pIC50 (KRas^G12R),"IC50 (H727 cells, pERK) [nM]","IC50 (ASPC1 cells, pERK) [nM]","IC50 (PSN1 cells, pERK) [nM]","IC50 (MKN1 cells, pERK) [nM]","IC50 (HCT116 cells, pERK) [nM]",pIC50 (KRas^G12V),Compound
8.40,8.05,1200,211,3650,51,2380,8.40,"CCc1c(F)ccc2cc(O)cc(N3CCc4c(nc(OC[C@@]56CCCN5C[C@H](F)C6)nc4N4CCCC5(CNS(=O)(=O)N5)C4)C3)c12 (stereo partly drawn) [Example 61, 7-(7-(8-ethyl-7-fluoro-3-hydroxynaphthalen-1-yl)-2-(((2R,7aS)-2-fluorohexahydro-1H-pyrrolizin-7a-yl)methoxy)-5,6,7,8-tetrahydropyrido[3,4-d]pyrimidin-4-yl)-2-thia-1,3,7-triazaspiro[4.5]decane 2,2-dioxide]"
≥ 8.70,8.40,790,253,4050,78,1450,8.52,"CC1(O)COCCN(c2nc(OC[C@@]34CCCN3C[C@H](F)C4)nc3c2CCN(c2cc(O)cc4ccc(F)c(Cl)c24)C3)C1 (stereo partly drawn) [Example 74, 4-(7-(8-chloro-7-fluoro-3-hydroxynaphthalen-1-yl)-2-(((2R,7aS)-2-fluorohexahydro-1H-pyrrolizin-7a-yl)methoxy)-5,6,7,8-tetrahydropyrido[3,4-d]pyrimidin-4-yl)-6-methyl-1,4-oxazepan-6-ol]"
8.10,≥ 8.70,608,457,6960,33,1170,≥ 8.70,"CCc1c(F)ccc2cc(O)cc(N3CCc4c(nc(OC[C@@]56CCCN5C[C@H](F)C6)nc4N4CC5CC(O)C(C5)C4)C3)c12 (stereo partly drawn) [Example 63, 3-(7-(8-ethyl-7-fluoro-3-hydroxynaphthalen-1-yl)-2-(((2R,7aS)-2-fluorohexahydro-1H-pyrrolizin-7a-yl)methoxy)-5,6,7,8-tetrahydropyrido[3,4-d]pyrimidin-4-yl)-3-azabicyclo[3.2.1]octan-6-ol]"
≥ 8.70,≥ 8.70,471,705,750,40,1490,≥ 8.70,"O=C1CC2(CCCN(c3nc(OC[C@@]45CCCN4C[C@H](F)C5)nc4c3CCN(c3cc(O)cc5ccc(F)c(Cl)c35)C4)C2)N1 (stereo partly drawn) [Example 70, 6-(7-(8-chloro-7-fluoro-3-hydroxynaphthalen-1-yl)-2-(((2R,7aS)-2-fluorohexahydro-1H-pyrrolizin-7a-yl)methoxy)-5,6,7,8-tetrahydropyrido[3,4-d]pyrimidin-4-yl)-1,6-diazaspiro[3.5]nonan-2-one]"
≥ 8.70,≥ 8.70,242,128,≥ 10000,128,2160,8.52,"Nc1cc2n(n1)CCCN(c1nc(OC[C@@]34CCCN3C[C@H](F)C4)nc3c1CCN(c1cc(O)cc4ccc(F)c(Cl)c14)C3)C2 [Example 75, 4-(4-(2-amino-7,8-dihydro-4H-pyrazolo[1,5-a][1,4]diazepin-5(6H)-yl)-2-(((2R,7aS)-2-fluorohexahydro-1H-pyrrolizin-7a-yl)methoxy)-5,6-dihydropyrido[3,4-d]pyrimidin-7(8H)-yl)-5-chloro-6-fluoronaphthalen-2-ol]"
8.40,8.30,1460,1360,≥ 10000,145,,8.52,"Oc1cc(N2CCc3c(nc(OC[C@@]45CCCN4C[C@H](F)C5)nc3N3CCOCC(n4cccn4)C3)C2)c2c(Br)c(F)ccc2c1 (stereo partly drawn) [Example 221, 4-(4-(6-(1H-pyrazol-1-yl)-1,4-oxazepan-4-yl)-2-(((2R,7aS)-2-fluorotetrahydro-1H-pyrrolizin-7a(5H)-yl)methoxy)-5,8-dihydropyrido[3,4-d]pyrimidin-7(6H)-yl)-5-bromo-6-fluoronaphthalen-2-ol]"
7.70,8.22,1300,4050,7050,524,,8.40,"Oc1cc(N2CCc3c(nc(OC[C@@]45CCCN4C[C@H](F)C5)nc3N3CC4CC(O)C(C4)C3)C2)c2c(Cl)c(F)ccc2c1 (stereo partly drawn) [Example 227, 3-(7-(8-chloro-7-fluoro-3-hydroxynaphthalen-1-yl)-2-(((2R,7aS)-2-fluorohexahydro-1H-pyrrolizin-7a-yl)methoxy)-5,6,7,8-tetrahydropyrido[3,4-d]pyrimidin-4-yl)-3-azabicyclo[3.2.1]octan-6-ol]"
8.30,8.52,871,661,6380,85,,8.52,"OCC1COCCN(c2nc(OC[C@@]34CCCN3C[C@H](F)C4)nc3c2CCN(c2cc(O)cc4ccc(F)c(Cl)c24)C3)C1 (stereo partly drawn) [Example 73, 5-chloro-6-fluoro-4-(2-(((2R,7aS)-2-fluorohexahydro-1H-pyrrolizin-7a-yl)methoxy)-4-(6-(hydroxymethyl)-1,4-oxazepan-4-yl)-5,6-dihydropyrido[3,4-d]pyrimidin-7(8H)-yl)naphthalen-2-ol]"
6.68,6.93,4660,3920,≥ 10000,1300,,7.12,"CCc1c(F)ccc2cc(O)cc(N3CCc4c(nc(OC[C@@]56CCCN5C[C@H](F)C6)nc4N4C[C@H]5CC[C@H](O)[C@H]5C4)C3)c12 [Example 182, (3aR,4S,6aS)-2-(7-(8-ethyl-7-fluoro-3-hydroxynaphthalen-1-yl)-2-(((2R,7aS)-2-fluorohexahydro-1H-pyrrolizin-7a-yl)methoxy)-5,6,7,8-tetrahydropyrido[3,4-d]pyrimidin-4-yl)octahydrocyclopenta[c]pyrrol-4-ol]"
≥ 8.70,8.52,29,24,≥ 10000,11,,≥ 8.70,"CCc1c(F)ccc2cc(O)cc(N3CCc4c(nc(OC[C@@]56CCCN5C[C@H](F)C6)nc4N4CCCn5nc(C(=O)N(C)C)c(Cl)c5C4)C3)c12 [Example 192, 3-chloro-5-(7-(8-ethyl-7-fluoro-3-hydroxynaphthalen-1-yl)-2-(((2R,7aS)-2-fluorotetrahydro-1H-pyrrolizin-7a(5H)-yl)methoxy)-5,6,7,8-tetrahydropyrido[3,4-d]pyrimidin-4-yl)-N,N-dimethyl-5,6,7,8-tetrahydro-4H-pyrazolo[1,5-a][1,4]diazepine-2-carboxamide]"
8.40,≥ 8.70,848,1170,6040,211,,≥ 8.70,"Oc1cc(N2CCc3c(nc(OC[C@@]45CCCN4C[C@H](F)C5)nc3N3CCCC4(CC(O)C4)C3)C2)c2c(Cl)c(F)ccc2c1 (stereo partly drawn) [Example 71, 6-(7-(8-chloro-7-fluoro-3-hydroxynaphthalen-1-yl)-2-(((2R,7aS)-2-fluorohexahydro-1H-pyrrolizin-7a-yl)methoxy)-5,6,7,8-tetrahydropyrido[3,4-d]pyrimidin-4-yl)-6-azaspiro[3.5]nonan-2-ol]"
8.30,8.30,1750,1090,≥ 10000,112,,8.52,"Oc1cc(N2CCc3c(nc(OC[C@@]45CCCN4C[C@H](F)C5)nc3N3CCOCC(n4cccn4)C3)C2)c2c(Cl)c(F)ccc2c1 (stereo partly drawn) [Example 230, 4-(4-(6-(1H-pyrazol-1-yl)-1,4-oxazepan-4-yl)-2-(((2R,7aS)-2-fluorohexahydro-1H-pyrrolizin-7a-yl)methoxy)-5,6-dihydropyrido[3,4-d]pyrimidin-7(8H)-yl)-5-chloro-6-fluoronaphthalen-2-ol]"
